The numbers were not newly measured in US20240050950A1, “GRADIENT-BASED MICROFLUIDIC CIRCUIT, DEVICE, AND METHOD FOR PERFORMING AN ASSAY” (priority 2020, published 2024), which cites them from elsewhere.

The structures appear in SMILES notation. Structures can show the parent of a compound that is named as a salt. Where two headings read alike, the source gives them in different places.

The conditions of this data set: cited from earlier work.
Setting [1] is: Table 1, antimicrobial agents/drugs.

As for `CC[C@@]1([C@@H]2O[C@@H]([C@H]3O[C@@](O)(CO)[C@H](C)C[C@@H]3C)C[C@@H]2C)CC[C@H]([C@]2(C)CC[C@]3(C[C@H](O)[C@@H](C)[C@@H]([C@@H](C)[C@@H](OC)[C@H](C)C(=O)O)O3)O2)O1` [Monensin], the Molar volume under setting [1] is given as 552.7 ± 5.0 cm^3.
With `CO[C@@]1(NC(=O)C(C(=O)O)c2ccc(O)cc2)C(=O)N2C(C(=O)O)=C(CSc3nnnn3C)CO[C@@H]21` (stereo partly shown) [Moxalactam (Latamoxef), Moxalactam], the Molar volume under setting [1] is reported as 292.5 ± 7.0 cm^3.
Turning to `c1cc(CN2CCCNCCNCCCNCC2)ccc1CN1CCCNCCNCCCNCC1` [Mozobil (Plerixafor), Plerixafor], the Molar volume (Table 2, anticancer drugs) is 522.2 ± 3.0 cm^3.
For the compound `C/C(=C\C(=O)OCCCCCCCCC(=O)O)C[C@@H]1OC[C@H](C[C@@H]2O[C@H]2[C@@H](C)[C@H](C)O)[C@@H](O)[C@H]1O` [Mupirocin], under setting [1], the Molar volume is listed as 423.0 ± 3.0 cm^3.
`CO/C(=C/C(N)=O)[C@H](C)[C@H](/C=C/c1csc(-c2csc([C@@H](C)/C=C/C=C/C(C)C)n2)n1)OC` [Myxothiazol]: under setting [1], the Molar volume was 421.0 ± 3.0 cm^3.
Consider `CN1C[C@H](O)[C@@H](O)[C@H](O)[C@H]1CO` [N-Methyl-1-deoxynojirimycin (1524564), N-Methyl-1-deoxynojirimycin], for which the Molar volume under setting [1] is reported as 127.0 ± 3.0 cm^3.
Consider `CCOc1ccc2ccccc2c1C(=O)N[C@@H]1C(=O)N2[C@@H]1SC(C)(C)[C@@H]2C(=O)O` [Nafcillin], for which the Molar volume under setting [1] is listed as 289.8 ± 5.0 cm^3.
On to `CN(C/C=C/c1ccccc1)Cc1cccc2ccccc12` [Naftifine], for which the Molar volume under setting [1] is recorded as 265.4 ± 3.0 cm^3.
On to `CC[C@@H](C(=O)O)[C@@H]1O[C@@H]([C@@H](C)[C@H](O)[C@H](C)C(=O)[C@H](CC)[C@H]2O[C@]3(C=C[C@@H](O)[C@]4(CC[C@@](C)([C@H]5CC[C@](O)(CC)[C@H](C)O5)O4)O3)[C@H](C)C[C@@H]2C)[C@@H](C)C[C@@H]1C` [Narasin], for which the Molar volume under setting [1] is 650.1 ± 5.0 cm^3.
With `CCC1=C[C@@H]2CN(C1)Cc1c([nH]c3ccccc13)[C@@](C(=O)OC)(c1cc3c(cc1OC)N(C)[C@H]1[C@@](O)(C(=O)OC)[C@H](OC(C)=O)[C@]4(CC)C=CCN5CC[C@]31[C@@H]54)C2` [Navelbine (Vinorelbine Tartrate), Vinorelbine Tartrate], for the setting “Table 2, anticancer drugs”, the Molar volume was 569.7 ± 5.0 cm^3.
As for `Cn1cc(NC(=O)c2cc(NC(=O)CN=C(N)N)cn2C)cc1C(=O)NCCC(=N)N` [Netropsin (Congocidin, Sinanomycin), Netropsin], the Molar volume under setting [1] is listed as 282.7 ± 7.0 cm^3.
For the compound `CNC(=O)c1cc(Oc2ccc(NC(=O)Nc3ccc(Cl)c(C(F)(F)F)c3)cc2)ccn1` [Nexavar (Sorafenib Tosylate), Sorafenib Tosylate], the Molar volume (Table 2, anticancer drugs) is listed as 319.4 ± 3.0 cm^3.
On to `O=C(Nc1ccc([N+](=O)[O-])cc1Cl)c1cc(Cl)ccc1O` [Niclosamide], for which the Molar volume under setting [1] is reported as 202.4 ± 3.0 cm^3.
`CO[C@@H]1C[C@@H](C[C@H]2CC[C@H](C)[C@H]([C@@H](C)C(=O)O)O2)O[C@]2(O[C@](C)([C@H]3CC[C@@](C)([C@@H]4O[C@@H]([C@H]5O[C@@](O)(CO)[C@H](C)C[C@@H]5C)C[C@@H]4C)O3)C[C@H]2C)[C@@H]1C` [Nigericin]: the Molar volume under setting [1] is 607.9 ± 5.0 cm^3.
Take `C[C@@H]([C@H](N)C(=O)N[C@H](C(=O)O)[C@H]1O[C@@H](n2ccc(=O)[nH]c2=O)[C@H](O)[C@@H]1O)[C@H](O)c1ccc(O)cn1` [Nikkomycin]: the Molar volume under setting [1] was 300.9 ± 3.0 cm^3.
On to `CC1(C)NC(=O)N(c2ccc([N+](=O)[O-])c(C(F)(F)F)c2)C1=O` [Nilandron (Nilutamide), Nilutamide], for which the Molar volume (Table 2, anticancer drugs) is recorded as 216.7 ± 3.0 cm^3.
For the compound `Cc1cn(-c2cc(NC(=O)c3ccc(C)c(Nc4nccc(-c5cccnc5)n4)c3)cc(C(F)(F)F)c2)cn1` [Nilotinib (Tasigna), Nilotinib], where the note is “Table 2, anticancer drugs”, the Molar volume is 388.6 ± 7.0 cm^3.
Consider `C[C@@H]1C[C@H]2CC[C@H](O2)[C@H](C)C(=O)O[C@@H](C)C[C@@H]2CC[C@@H](O2)[C@@H](C)C(=O)O[C@H](C)C[C@H]2CC[C@H](O2)[C@H](C)C(=O)O[C@@H](C)C[C@@H]2CC[C@@H](O2)[C@@H](C)C(=O)O1` [Nonactin (Ammonium ionophore), Nonactin], for which the Molar volume under setting [1] was 707.9 ± 3.0 cm^3.
In the case of `CO[C@@H]1[C@@H](OC(N)=O)[C@@H](O)[C@H](Oc2ccc3c(O)c(NC(=O)c4ccc(O)c(CC=C(C)C)c4)c(=O)oc3c2C)OC1(C)C` [Novobiocin], the Molar volume under setting [1] is 430.9 ± 5.0 cm^3.
Take `C[C@@H]1[C@H](O)[C@@H](C)/C=C/C=C/CC/C=C/C=C/C=C/C=C/C(O[C@H]2O[C@H](C)[C@@H](O)[C@H](N)[C@@H]2O)CC2O[C@](O)(CC(O)C(O)CCC(O)CC(O)CC(O)CC(=O)O[C@H]1C)CC(O)C2C(=O)O` (stereo partly shown) [Nystatin (Fungicidin, Mycostatin), Nystatin]: under setting [1], the Molar volume is reported as 696.1 ± 5.0 cm^3.
For `C[C@@H]1Cc2c(Cl)cc(C(=O)N[C@@H](Cc3ccccc3)C(=O)O)c(O)c2C(=O)O1` [Ochratoxin A], under setting [1], the Molar volume was 283.2 ± 3.0 cm^3.
On to `Cc1c(C(=O)Nc2ccc(N3C[C@@H](C)O[C@@H](C)C3)nc2)cccc1-c1ccc(OC(F)(F)F)cc1` [Odomzo (Sonidegib), Sonidegib], for which the Molar volume (Table 2, anticancer drugs) was 386.7 ± 3.0 cm^3.
Regarding `CC[C@@H]1/C=C/C=C/C[C@H](C)[C@H](O)[C@](C)(O)C(=O)[C@H](C)[C@@H](O)[C@H](C)C(=O)[C@H](C)[C@@H](O)[C@H](C)/C=C/C(=O)O[C@H]2[C@@H](C)[C@@H](CC1)O[C@@]1(CC[C@@H](C)[C@@H](C[C@H](C)O)O1)[C@@H]2C` [Oligomycin A], the Molar volume reads like this: under setting [1], 688.2 ± 5.0 cm^3; (Table 3, antifungal drugs and other molecules) 688.2 ± 5.0 cm^3.
Regarding `COC(=O)C[C@](O)(CCCC(C)(C)O)C(=O)O[C@@H]1C(OC)=C[C@]23CCCN2CCc2cc4c(cc2[C@H]13)OCO4` [Omacetaxine Mepesuccinate], the Molar volume (Table 2, anticancer drugs) is on record as 408.4 ± 5.0 cm^3.
Turning to `C=CC(=O)Nc1cc(Nc2nccc(-c3cn(C)c4ccccc34)n2)c(OC)cc1N(C)CCN(C)C` [Osimertinib (Tagrisso), Osimertinib], the Molar volume (Table 2, anticancer drugs) is 418.4 ± 7.0 cm^3.
For the compound `Cc1onc(-c2ccccc2)c1C(=O)N[C@@H]1C(=O)N2[C@@H]1SC(C)(C)[C@@H]2C(=O)O` [Oxacillin], the Molar volume under setting [1] is 268.4 ± 5.0 cm^3.
As to `CCn1cc(C(=O)O)c(=O)c2cc3c(cc21)OCO3` [Oxolinic acid], the Molar volume under setting [1] is given as 176.1 ± 3.0 cm^3.
On to `N=C1Sc2ccccc2C2=NCCCN12` [PD 404, 182, PD 404,182], for which the Molar volume under setting [1] is given as 150.9 ± 7.0 cm^3.
For `COc1ccc(C[C@H](N)C(=O)N[C@H]2[C@@H](O)[C@H](n3cnc4c(N(C)C)ncnc43)O[C@@H]2CO)cc1` [PUROMYCIN], under setting [1], the Molar volume is on record as 311.7 ± 7.0 cm^3.
With `O=C1C=C2C(=CCOC2O)O1` (stereo not shown) [Patulin], the Molar volume under setting [1] is 101.3 ± 5.0 cm^3.
As for `N=C(N)c1ccc(OCCCCCOc2ccc(C(=N)N)cc2)cc1` [Pentamidine], the Molar volume under setting [1] is 281.4 ± 7.0 cm^3.
As for `c1ccc2nc3ccccc3nc2c1` [Phenazine], under setting [1], the Molar volume was 144.1 ± 3.0 cm^3.
As for `C[C@@H]1O[C@@H]1P(=O)(O)O` [Phosphomycin (Fosfomycin), Phosphomycin], the Molar volume under setting [1] is on record as 88.4 ± 5.0 cm^3.
`CCn1cc(C(=O)O)c(=O)c2cnc(N3CCNCC3)nc21` [Pipemidic acid]: the Molar volume under setting [1] is reported as 219.6 ± 3.0 cm^3.
For `COc1cccc2c1C(=O)c1c(O)c3c(c(O)c1C2=O)C[C@@](O)(C(=O)CO)C[C@@H]3O[C@H]1C[C@H](N)[C@H](O[C@@H]2CCCCO2)[C@H](C)O1` [Pirarubicin (THP), Pirarubicin], the Molar volume under setting [1] is 413.3 ± 5.0 cm^3.
Turning to `Nc1cccc2c1C(=O)N(C1CCC(=O)NC1=O)C2=O` (stereo not shown) [Pomalidomide], the Molar volume (Table 2, anticancer drugs) was 173.9 ± 3.0 cm^3.
With `O=C(C1CCCCC1)N1CC(=O)N2CCc3ccccc3C2C1` (stereo not shown) [Praziquantel], the Molar volume under setting [1] is listed as 254.2 ± 5.0 cm^3.
As for `CCCc1cc(C(N)=S)ccn1` [Prothionamide], under setting [1], the Molar volume is given as 158.5 ± 3.0 cm^3.
`NC(=O)c1cnccn1` [Pyrazinecarboxamide]: under setting [1], the Molar volume is recorded as 87.7 ± 7.0 cm^3.
Regarding `COc1ccc2nc3cc(Cl)ccc3c(Nc3cc(CN4CCCC4)c(O)c(CN4CCCC4)c3)c2n1` [Pyronaridine], the Molar volume under setting [1] is reported as 381.8 ± 3.0 cm^3.
Consider `O=[N+]([O-])c1c(Cl)cccc1-c1c[nH]cc1Cl` [Pyrrolnitrin], for which the Molar volume under setting [1] was 168.7 ± 3.0 cm^3.
For `C[C@@H]1C[C@H]2O[C@@H]2/C=C\C=C\C(=O)Cc2c(Cl)c(O)cc(O)c2C(=O)O1` [Radicicol], the Molar volume under setting [1] is given as 267.3 ± 3.0 cm^3.
On to `CNC(=O)c1cc(Oc2ccc(NC(=O)Nc3ccc(Cl)c(C(F)(F)F)c3)c(F)c2)ccn1` [Regorafenib], for which the Molar volume (Table 2, anticancer drugs) is given as 323.6 ± 3.0 cm^3.
For the compound `NC(=O)c1ncn([C@@H]2O[C@H](CO)[C@@H](O)[C@H]2O)n1` [Ribavirin], the Molar volume under setting [1] was 117.0 ± 7.0 cm^3.
As to `NC[C@H]1O[C@H](O[C@H]2[C@H](O[C@@H]3O[C@H](CO)[C@@H](O)[C@H]3O)[C@@H](O)[C@H](N)C[C@@H]2N)[C@H](N)[C@@H](O)[C@@H]1O` [Ribostamycin], the Molar volume under setting [1] was 283.6 ± 5.0 cm^3.
Consider `CO[C@H]1/C=C/O[C@@]2(C)Oc3c(C)c(O)c4c(c3C2=O)C2=NC3(CCN(CC(C)C)CC3)NC2=C(NC(=O)/C(C)=C\C=C\[C@H](C)[C@H](O)[C@@H](C)[C@@H](O)[C@@H](C)[C@H](OC(C)=O)[C@@H]1C)C4=O` [Rifabutin], for which, under setting [1], the Molar volume was 632.4 ± 7.0 cm^3.
Take `CO[C@H]1/C=C/O[C@@]2(C)Oc3c(C)c(O)c4c(O)c(c(/C=N/N5CCN(C6CCCC6)CC5)c(O)c4c3C2=O)NC(=O)/C(C)=C\C=C\[C@H](C)[C@H](O)[C@@H](C)[C@@H](O)[C@@H](C)[C@H](OC(C)=O)[C@@H]1C` [Rifapentine (DL 473), Rifapentine]: the Molar volume under setting [1] is given as 648.0 ± 7.0 cm^3.
For the compound `C[C@@H](OC[C@@]1(c2ccccc2)CC[C@]2(CCC(=O)N2)CN1)c1cc(C(F)(F)F)cc(C(F)(F)F)c1` [Rolapitant Hydrochloride], the Molar volume (Table 2, anticancer drugs) is 373.3 ± 5.0 cm^3.
